From patent US5661144A, “Cephem derivatives with 3-substituted bis heterocycles” (Meiji Seika Kabushiki Kaisha, priority 1994, dated 1997) come the findings set out here.

Experiment in all cases: Antibacterial activity (MIC), conventional two-fold dilution method
Holding throughout (assay type): cell-based

One experiment concerns C. freundii GN346/16. The conditions noted are these: Citrobacter freundii, 10^6 CFU/ml, Medium N, 35° C., 18 to 20 hours. The procedure:
(§1) The test was carried out in the following manner: 10^6 CFU/ml of a bacterium to be tested was inoculated on a Medium N for disc susceptibility test (manufactured by Nissui Pharmaceutical Co., Ltd.), and cultivated at 35° C. for 18 to 20 hours.

The test system of a further experiment is E. coli NIHJ JC-2. The settings on record: Escherichia coli, NIHJJC2, 10^6 CFU/ml, Medium N, 35° C., 18 to 20 hours. The procedure: as §1
The next experiment relates to E. faecalis W-73. The conditions noted are these: Enterococcus faecalis, W73, 10^6 CFU/ml, Medium N, 35° C., 18 to 20 hours. The procedure: as §1
In another experiment the test system is K. pneumoniae PC1602. The conditions noted are these: Klebsiella pneumoniae, 10^6 CFU/ml, Medium N, 35° C., 18 to 20 hours. The procedure:
as §1

For another experiment, the system named is M. morganii 1510/S-1. The conditions noted are these: Morganella morganii, 1510/S1, 10^6 CFU/ml, Medium N, 35° C., 18 to 20 hours. The procedure:
as §1

A further experiment has as its system P. auruginosa E-2. The conditions noted are these: 10^6 CFU/ml, Medium N, 35° C., 18 to 20 hours. The procedure:
as §1

The next experiment has as its system P. vulgaris GN76. The conditions noted are these: Proteus vulgaris, 10^6 CFU/ml, Medium N, 35° C., 18 to 20 hours. The procedure:
as §1

Another experiment concerns R. cloacae G-0008. The conditions noted are these: 10^6 CFU/ml, Medium N, 35° C., 18 to 20 hours. The procedure: as §1
The next experiment deals with S. aureus 209P JC-1. The conditions noted are these: Staphylococcus aureus, 10^6 CFU/ml, Medium N, 35° C., 18 to 20 hours. The procedure:
as §1

A further experiment concerns S. epidermidis ATCC14990. The conditions noted are these: Staphylococcus epidermidis, 10^6 CFU/ml, Medium N, 35° C., 18 to 20 hours. The procedure: as §1
The next experiment relates to S. marcescens No.1. The conditions noted are these: Serratia marcescens, 10^6 CFU/ml, Medium N, 35° C., 18 to 20 hours. The procedure:
as §1

Structures can show the parent of a compound that is named as a salt.

Turning to `Nc1nc(C(=NOCF)C(=O)NC2C(=O)N3C(C(=O)[O-])=C(C=CC[n+]4cc5sccn5c4)CSC23)ns1` [Example 1, (6R, 7R)-7-[(Z)-2-(5-amino-1,2,4-thiadiazol-3-yl)-2-fluoromethoxyiminoacetamido]-3-[3-(imidazo[5,1-b]-thiazolium-6-yl)-1-propenyl]-3-cephem-4-carboxylate(internal salt)], the MIC with C. freundii GN346/16 is 0.05 µg/mL; in the experiment with E. coli NIHJ JC-2, below 0.025 µg/mL; against E. faecalis W-73, 12.5 µg/mL; against K. pneumoniae PC1602 it was 0.05 µg/mL; with M. morganii 1510/S-1, below 0.025 µg/mL; in the experiment on P. auruginosa E-2, 12.5 µg/mL. Further, the MIC is 0.1 µg/mL with P. vulgaris GN76; 0.05 µg/mL with R. cloacae G-0008; 0.2 µg/mL in the experiment with S. aureus 209P JC-1; 0.1 µg/mL in the experiment on S. epidermidis ATCC14990; 0.05 µg/mL with S. marcescens No.1.

Consider `Cc1csc2c[n+](CC=CC3=C(C(=O)[O-])N4C(=O)C(NC(=O)C(=NOCF)c5nsc(N)n5)C4SC3)cn12` [Example 2, (6R, 7R)-7-[(Z)-2-(5-amino-1,2,4-thiadiazol-3-yl)-2-fluoromethoxyiminoacetamido]-3-[3-(3-methylimidazo[5,1-b]thiazolium-6-yl)-1-propenyl]-3-cephem-4-carboxylate (internal salt)], for which the MIC is 0.05 µg/mL against C. freundii GN346/16; 0.05 µg/mL in the experiment with E. coli NIHJ JC-2; 12.5 µg/mL in the experiment on E. faecalis W-73; 0.05 µg/mL against K. pneumoniae PC1602; below 0.025 µg/mL against M. morganii 1510/S-1; 25 µg/mL against P. auruginosa E-2. The MIC against P. vulgaris GN76 was 0.1 µg/mL; against R. cloacae G-0008, 0.05 µg/mL; with S. aureus 209P JC-1 it was 0.2 µg/mL; in the experiment with S. epidermidis ATCC14990, 0.2 µg/mL; with S. marcescens No.1, 0.05 µg/mL.

For `NC(=O)c1csc2c[n+](CC=CC3=C(C(=O)[O-])N4C(=O)C(NC(=O)C(=NOCF)c5nsc(N)n5)C4SC3)cn12` [Example 3, (6R, 7R)-7-[(Z)-2-(5-amino-1,2,4-thiadiazol-3-yl)-2-fluoromethoxyiminoacetamido]-3-[3-(3-carbamoylimidazo [5,1-b]thiazolium-6-yl)-1-propenyl]-3-cephem-4-carboxylate (internal salt)], the MIC was 0.05 µg/mL in the experiment with C. freundii GN346/16; 0.05 µg/mL in the experiment on E. coli NIHJ JC-2; 12.5 µg/mL with E. faecalis W-73; 0.05 µg/mL in the experiment with K. pneumoniae PC1602; below 0.025 µg/mL against M. morganii 1510/S-1; 12.5 µg/mL in the experiment with P. auruginosa E-2. The MIC in the experiment on P. vulgaris GN76 was found to be 0.1 µg/mL; against R. cloacae G-0008, 0.05 µg/mL; against S. aureus 209P JC-1, 0.2 µg/mL; against S. epidermidis ATCC14990, 0.2 µg/mL; against S. marcescens No.1, 0.05 µg/mL.

In the case of `Nc1nc(C(=NOCF)C(=O)NC2C(=O)N3C(C(=O)[O-])=C(C=CC[n+]4cc5sccn5c4CNC=O)CSC23)ns1` [Example 4, (6R, 7R)-7-[(Z)-2-(5-amino-1,2,4-thiadiazol-3-yl)-2-fluoromethoxyiminoacetamido]-3-[3-(5-formylaminomethylimidazo[5,1-b]thiazolium-6-yl]-1-propenyl]-3-cephem-4-carboxylate (internal salt)], the MIC in the experiment on C. freundii GN346/16 was below 0.025 µg/mL; with E. coli NIHJ JC-2 it was below 0.025 µg/mL; in the experiment on E. faecalis W-73 it was 12.5 µg/mL; in the experiment with K. pneumoniae PC1602, below 0.025 µg/mL; with M. morganii 1510/S-1 it was below 0.025 µg/mL; with P. auruginosa E-2, 12.5 µg/mL. Further, the MIC in the experiment with P. vulgaris GN76 is 0.1 µg/mL; in the experiment with R. cloacae G-0008, 0.05 µg/mL; with S. aureus 209P JC-1, 0.39 µg/mL; in the experiment with S. epidermidis ATCC14990, 0.2 µg/mL; in the experiment with S. marcescens No.1, 0.05 µg/mL.
